According to the NIST ThermoML archive (doi:10.1021/je900661c):
Values joined by “and” are separate entries in the source; they are usually repeats but may differ in a detail not shown here. Identical values can stand only once. ± gives the expanded uncertainty stated by the source.

Assay: molar heat capacity at constant pressure
Details: 5000 kPa, Liquid, thermal relaxation

Compound | molar heat capacity at constant pressure (310 K) | molar heat capacity at constant pressure (315 K) | molar heat capacity at constant pressure (320 K) | molar heat capacity at constant pressure (325 K) | molar heat capacity at constant pressure (330 K) | molar heat capacity at constant pressure (335 K) | molar heat capacity at constant pressure (340 K) | molar heat capacity at constant pressure (345 K) | molar heat capacity at constant pressure (350 K)
CC(F)(F)F [1,1,1-trifluoroethane] | 136.15 ± 6.7 J/K/mol | 140.35 ± 7.6 J/K/mol | 145.39 ± 7.6 J/K/mol | 150.43 ± 7.6 J/K/mol | 155.47 ± 8.4 J/K/mol | 162.2 ± 8.4 J/K/mol | 173.96 ± 9.2 J/K/mol | 189.93 ± 10 J/K/mol and 192.45 ± 10 J/K/mol | 224.39 ± 12 J/K/mol
FCF [difluoromethane] | 106.65 ± 5.7 J/K/mol | 109.77 ± 5.7 J/K/mol | 113.41 ± 5.7 J/K/mol | 119.65 ± 6.2 J/K/mol | 125.9 ± 6.8 J/K/mol | 138.9 ± 7.3 J/K/mol | 164.39 ± 8.3 J/K/mol | – | –
FC(F)C(F)(F)F [pentafluoroethane] | 154.83 ± 8.4 J/K/mol | 159.63 ± 8.4 J/K/mol | 163.23 ± 8.4 J/K/mol | 171.63 ± 8.4 J/K/mol | 182.43 ± 9.6 J/K/mol and 183.63 ± 9.6 J/K/mol | 193.23 ± 9.6 J/K/mol | 217.24 ± 11 J/K/mol and 212.44 ± 11 J/K/mol | 242.44 ± 13 J/K/mol | 282.05 ± 14 J/K/mol
